Experimental data taken from ChEMBL document CHEMBL1201862, “PubChem BioAssay data set” (2004).
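Results reflect a 48-hour exposure of cells in 96-well plates to compound at five concentrations. GI50 marks 50% less growth.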 The source made the active and inactive calls. Rule as the data show it: active = GI50 up to about 1.1 µM and inactive = higher.

Legend:
Test in all cases: NCI-60 cell line screen, 48 h
ACHN = test system: ACHN
COLO 205 = test system: COLO 205
EKVX = test system: EKVX
HT-29 = test system: HT-29
MDA-N = test system: MDA-N
Malme-3M = test system: Malme-3M
NCI-H226 = test system: NCI-H226
PC-3 = test system: PC-3
RPMI-8226 = test system: RPMI-8226
RXF 393 = test system: RXF 393
SF-539 = test system: SF-539
SK-MEL-2 = test system: SK-MEL-2
SK-MEL-5 = test system: SK-MEL-5
SR = test system: SR
T47D = test system: T47D
TK-10 = test system: TK-10
UACC-257 = test system: UACC-257
UACC-62 = test system: UACC-62
DU-145 = test system: DU-145
SN12C = test system: SN12C

Structure (SMILES) | GI50 (ACHN) | GI50 (COLO 205) | GI50 (EKVX) | GI50 (HT-29) | GI50 (MDA-N) | GI50 (Malme-3M) | GI50 (NCI-H226) | GI50 (PC-3) | GI50 (RPMI-8226) | GI50 (RXF 393) | GI50 (SF-539) | GI50 (SK-MEL-2) | GI50 (SK-MEL-5) | GI50 (SR) | GI50 (T47D) | GI50 (TK-10) | GI50 (UACC-257) | GI50 (UACC-62) | GI50 (DU-145) | GI50 (SN12C)
CN(NC(=O)c1cccs1)C1=NCCN1 | > 100 µM (inactive) | > 100 µM (inactive) | > 100 µM (inactive) | > 100 µM (inactive) | > 100 µM (inactive) | > 100 µM (inactive) | > 100 µM (inactive) | > 100 µM (inactive) | > 100 µM (inactive) | > 100 µM (inactive) | > 100 µM (inactive) | > 100 µM (inactive) | > 100 µM (inactive) | > 100 µM (inactive) | > 100 µM (inactive) | 23.8 µM (inactive) | > 100 µM (inactive) | > 100 µM (inactive) | – | –
S=C(N/N=C\C=N/NC(=S)N1CCCCCC1)N1CCCCCC1 | 8.59 µM (inactive) | 15.9 µM (inactive) | > 57.3 µM (inactive) | 7.28 µM (inactive) | > 68.1 µM (inactive) | 22.2 µM (inactive) | 28.6 µM (inactive) | 12.2 µM (inactive) | > 100 µM (inactive) | 20.6 µM (inactive) | 64.9 µM (inactive) | 17.1 µM (inactive) | 14.2 µM (inactive) | – | 1.44 µM (inactive) | 57.9 µM (inactive) | > 61.9 µM (inactive) | 21.2 µM (inactive) | 9.31 µM (inactive) | > 100 µM (inactive)
COc1ccc(CN(Cc2ccc(OC)cc2)C(=O)CC2(O)CCc3ccccc3C2)cc1 (configuration not stated) | 49.8 µM (inactive) | 21.8 µM (inactive) | 37.5 µM (inactive) | 37.4 µM (inactive) | – | 28.2 µM (inactive) | 15.1 µM (inactive) | 17.2 µM (inactive) | 62.2 µM (inactive) | – | > 100 µM (inactive) | 60 µM (inactive) | 28.8 µM (inactive) | 16 µM (inactive) | 8.71 µM (inactive) | > 100 µM (inactive) | 42.8 µM (inactive) | 50.9 µM (inactive) | > 100 µM (inactive) | > 100 µM (inactive)
O=C1/C(=C\c2cccc(Oc3ccccc3)c2)SC(c2ccccc2)N1c1ccccc1 (configuration not stated) | > 100 µM (inactive) | > 100 µM (inactive) | 57 µM (inactive) | 26.4 µM (inactive) | 30.1 µM (inactive) | > 100 µM (inactive) | > 100 µM (inactive) | – | 14.8 µM (inactive) | 69.5 µM (inactive) | 26.5 µM (inactive) | > 100 µM (inactive) | 27.1 µM (inactive) | 11.9 µM (inactive) | 52.5 µM (inactive) | > 100 µM (inactive) | 52.1 µM (inactive) | 43.3 µM (inactive) | > 100 µM (inactive) | > 100 µM (inactive)
CCC1OC2C(CC=C(C)C)=C3OC(C)(O)C(C)(CC)C(OC(=O)c4ccccc4)C3=C3OC(=O)C=C1C32 (configuration not stated) | 39.6 µM (inactive) | 18.1 µM (inactive) | 31.6 µM (inactive) | 40.8 µM (inactive) | 20.5 µM (inactive) | 39 µM (inactive) | – | 40.1 µM (inactive) | 24.7 µM (inactive) | – | 25.2 µM (inactive) | 22.8 µM (inactive) | 19.8 µM (inactive) | 59.8 µM (inactive) | 29 µM (inactive) | 52 µM (inactive) | 38.4 µM (inactive) | 30.5 µM (inactive) | 32.7 µM (inactive) | 27.7 µM (inactive)
CC(=O)n1c(COS(C)(=O)=O)nc2ccccc21 | > 100 µM (inactive) | > 100 µM (inactive) | > 100 µM (inactive) | > 100 µM (inactive) | > 100 µM (inactive) | > 100 µM (inactive) | > 100 µM (inactive) | > 100 µM (inactive) | – | > 100 µM (inactive) | > 100 µM (inactive) | > 100 µM (inactive) | > 100 µM (inactive) | – | > 100 µM (inactive) | > 100 µM (inactive) | > 100 µM (inactive) | > 100 µM (inactive) | > 100 µM (inactive) | > 100 µM (inactive)
N#Cc1c(-c2ccccc2)c(/N=N/c2ccc(Cl)cc2)c(=O)n2c1[nH]c1ccccc12 | > 100 µM (inactive) | > 100 µM (inactive) | 71.4 µM (inactive) | – | > 100 µM (inactive) | > 100 µM (inactive) | 65.9 µM (inactive) | > 100 µM (inactive) | 39.9 µM (inactive) | 42.1 µM (inactive) | > 100 µM (inactive) | > 100 µM (inactive) | 55.8 µM (inactive) | – | 97.1 µM (inactive) | 23.3 µM (inactive) | > 100 µM (inactive) | – | – | > 100 µM (inactive)
CCCCCCNCCCNc1c2cc(OC)ccc2nc2cccc([N+](=O)[O-])c12 | 0.14 µM (active) | 0.139 µM (active) | 0.0986 µM (active) | 0.0326 µM (active) | – | 0.0304 µM (active) | 0.257 µM (active) | 0.144 µM (active) | < 0.0289 µM (active) | 0.0245 µM (active) | 0.29 µM (active) | 0.0764 µM (active) | < 0.0385 µM (active) | 0.0173 µM (active) | 0.109 µM (active) | 0.131 µM (active) | 0.366 µM (active) | 0.143 µM (active) | 0.0413 µM (active) | 0.0787 µM (active)
CCOc1ccc(/N=N/C2C(=O)N(C(=O)CC(=O)Nc3ccc(C)cc3)N=C2C)cc1 (configuration not stated) | 50.8 µM (inactive) | > 100 µM (inactive) | 6.68 µM (inactive) | 24 µM (inactive) | 2.7 µM (inactive) | 47.5 µM (inactive) | 26.3 µM (inactive) | > 100 µM (inactive) | – | – | 14.8 µM (inactive) | 26.6 µM (inactive) | 72.3 µM (inactive) | 14 µM (inactive) | 37.8 µM (inactive) | 24.8 µM (inactive) | > 100 µM (inactive) | 16.7 µM (inactive) | 38.6 µM (inactive) | 35.2 µM (inactive)
CC(C)OC(=O)C1=C2c3ncccc3C(=O)N2[C@@H](Cl)[C@@H](Cl)[C@@H]1Cl | > 100 µM (inactive) | > 100 µM (inactive) | > 100 µM (inactive) | > 100 µM (inactive) | 74.1 µM (inactive) | > 100 µM (inactive) | > 100 µM (inactive) | > 100 µM (inactive) | 29.8 µM (inactive) | > 100 µM (inactive) | > 100 µM (inactive) | > 100 µM (inactive) | > 100 µM (inactive) | 49.5 µM (inactive) | – | > 100 µM (inactive) | > 100 µM (inactive) | > 100 µM (inactive) | > 100 µM (inactive) | 21.2 µM (inactive)
COc1cc(O)c2c(=O)c3c(C)cccc3n(C)c2c1 | > 10 µM (inactive) | > 10 µM (inactive) | 4.17 µM (inactive) | > 10 µM (inactive) | > 10 µM (inactive) | > 10 µM (inactive) | > 10 µM (inactive) | > 10 µM (inactive) | > 10 µM (inactive) | > 10 µM (inactive) | > 10 µM (inactive) | > 10 µM (inactive) | > 10 µM (inactive) | – | > 10 µM (inactive) | > 10 µM (inactive) | > 10 µM (inactive) | > 10 µM (inactive) | > 10 µM (inactive) | > 10 µM (inactive)
CC(C)CCc1n[nH]c(=O)n1/N=C\c1ccccc1 | > 100 µM (inactive) | > 100 µM (inactive) | > 100 µM (inactive) | > 100 µM (inactive) | > 100 µM (inactive) | > 100 µM (inactive) | > 100 µM (inactive) | – | – | > 100 µM (inactive) | > 100 µM (inactive) | 93.1 µM (inactive) | > 100 µM (inactive) | – | > 100 µM (inactive) | > 100 µM (inactive) | > 100 µM (inactive) | > 100 µM (inactive) | > 100 µM (inactive) | > 100 µM (inactive)
O=[N+]([O-])c1cn[n+]([O-])c2ccccc12 | 1.13 µM (inactive) | 13.2 µM (inactive) | 12.9 µM (inactive) | 4.65 µM (inactive) | 13.6 µM (inactive) | 15.4 µM (inactive) | 7.36 µM (inactive) | 8.28 µM (inactive) | 2.03 µM (inactive) | – | 10.4 µM (inactive) | – | 13.2 µM (inactive) | 0.403 µM (active) | 3.7 µM (inactive) | 12.9 µM (inactive) | 11.4 µM (inactive) | – | 1.05 µM (active) | 8.83 µM (inactive)
CN(C(=O)Cc1ccc(Cl)c(Cl)c1)[C@H]1CCCC[C@@H]1[N+]1(C)CCCC1 | > 100 µM (inactive) | > 100 µM (inactive) | > 100 µM (inactive) | > 100 µM (inactive) | > 100 µM (inactive) | > 100 µM (inactive) | > 100 µM (inactive) | > 100 µM (inactive) | > 100 µM (inactive) | – | > 100 µM (inactive) | > 100 µM (inactive) | 71.6 µM (inactive) | > 100 µM (inactive) | > 100 µM (inactive) | > 100 µM (inactive) | > 100 µM (inactive) | > 100 µM (inactive) | > 100 µM (inactive) | > 100 µM (inactive)
COc1ccc2cc(NC(=O)Nn3cnnc3)ccc2c1 | > 100 µM (inactive) | > 100 µM (inactive) | 80.7 µM (inactive) | > 100 µM (inactive) | > 100 µM (inactive) | > 100 µM (inactive) | > 100 µM (inactive) | > 100 µM (inactive) | > 100 µM (inactive) | – | > 100 µM (inactive) | > 100 µM (inactive) | > 100 µM (inactive) | > 100 µM (inactive) | > 100 µM (inactive) | > 100 µM (inactive) | > 100 µM (inactive) | > 100 µM (inactive) | > 100 µM (inactive) | –
